Laboratory results from PubChem BioAssay AID256 (DTP/NCI, 2004).
Several values for one entry are separate records, joined by “and”; a condition that tells them apart may be missing. Identical values can stand only once. Inconclusive results and toxic doses are left out. How the source made its calls: active means survival T/C of 150% or more; inactive means T/C below 125% in these data.

Tested on: CD2F1 mice, L1210 leukemia ip, survival T/C
Experiment: NCI In Vivo Anticancer Drug Screen. Data for tumor model L1210 Leukemia (intraperitoneal) in CD2F1 (CDF1) mice
Settings: higher = longer survival
In short: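 Transplantable tumor in mice; compound-treated vs vehicle-treated groups. Read-out = treated/control ratio of the measured endpoint.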

[1] = endpoint: mean survival time, dose: 100.0 mg/kg/injection, schedule: Q04DX003 (ip), vehicle: saline with Tween-80
[2] = endpoint: mean survival time, dose: 200.0 mg/kg/injection, schedule: Q04DX003 (ip), vehicle: saline with Tween-80
[3] = endpoint: mean survival time, dose: 400.0 mg/kg/injection, schedule: Q04DX003 (ip), vehicle: saline with Tween-80
[4] = endpoint: mean survival time, dose: 100.0 mg/kg/injection, schedule: Q01DX001 (ip), vehicle: saline with Tween-80
[5] = endpoint: mean survival time, dose: 200.0 mg/kg/injection, schedule: Q01DX001 (ip), vehicle: saline with Tween-80
[6] = endpoint: mean survival time, dose: 400.0 mg/kg/injection, schedule: Q01DX001 (ip), vehicle: saline with Tween-80
[7] = endpoint: mean survival time, dose: 12.5 mg/kg/injection, schedule: Q01DX009 (ip), vehicle: Klucel (hydroxypropylcellulose) (HPC)
[8] = endpoint: mean survival time, dose: 100.0 mg/kg/injection, schedule: Q01DX009 (ip), vehicle: saline with Tween-80
[9] = endpoint: mean survival time, dose: 200.0 mg/kg/injection, schedule: Q01DX009 (ip), vehicle: saline with Tween-80
[10] = endpoint: mean survival time, dose: 100.0 mg/kg/injection, schedule: Q04DX002 (ip), vehicle: saline with Tween-80
[11] = endpoint: mean survival time, dose: 200.0 mg/kg/injection, schedule: Q04DX002 (ip), vehicle: saline with Tween-80
[12] = endpoint: mean survival time, dose: 400.0 mg/kg/injection, schedule: Q04DX002 (ip), vehicle: saline with Tween-80

Measured: T/C

Cc1ccc(SCc2c(COc3ccc(Cl)cc3)sc3ccc(Cl)cc23)cc1
inactive: [1] 92 % of control | [2] 92 % of control | [3] 94 % of control

c1ccc(CCc2ccccc2)cc1
inactive: endpoint: mean survival time, dose: 25.0 mg/kg/injection, schedule: Q04DX003 (ip), vehicle: saline with Tween-80 100 % of control | endpoint: mean survival time, dose: 50.0 mg/kg/injection, schedule: Q04DX003 (ip), vehicle: saline with Tween-80 103 % of control | [4] 100 % of control | [1] 104 % of control and 105 % of control | [5] 103 % of control | [2] 101 % of control | [6] 91 % of control | [3] 107 % of control

CC(=O)[O][Hg][c]1s[c]([Hg][O]C(C)=O)[c]([Hg][O]C(C)=O)[c]1[Hg][O]C(C)=O
inactive: endpoint: mean survival time, dose: 1.5 mg/kg/injection, schedule: Q01DX009 (ip), vehicle: saline sonified 96 % of control | endpoint: mean survival time, dose: 3.0 mg/kg/injection, schedule: Q01DX009 (ip), vehicle: saline sonified 98 % of control | endpoint: mean survival time, dose: 6.0 mg/kg/injection, schedule: Q01DX009 (ip), vehicle: saline sonified 106 % of control | endpoint: mean survival time, dose: 6.25 mg/kg/injection, schedule: Q01DX009 (ip), vehicle: Klucel (hydroxypropylcellulose) (HPC) 101 % of control | endpoint: mean survival time, dose: 6.25 mg/kg/injection, schedule: Q04DX003 (ip), vehicle: saline with Tween-80 104 % of control | [7] 106 % of control | endpoint: mean survival time, dose: 25.0 mg/kg/injection, schedule: Q01DX009 (ip), vehicle: Klucel (hydroxypropylcellulose) (HPC) 104 % of control

O=[N+]([O-])c1ccc(C(F)(F)F)cc1
inactive: [1] 104 % of control | [2] 102 % of control

CNc1ccn(C2OC(CO)C(O)C2SC(C)(C)C)c(=O)n1 (centres undefined)
inactive: endpoint: median survival time, dose: 12.5 mg/kg/injection, schedule: Q01DX005 (ip), vehicle: saline 105 % of control | endpoint: median survival time, dose: 25.0 mg/kg/injection, schedule: Q01DX005 (ip), vehicle: saline 105 % of control | endpoint: median survival time, dose: 50.0 mg/kg/injection, schedule: Q01DX005 (ip), vehicle: saline 100 % of control | endpoint: median survival time, dose: 100.0 mg/kg/injection, schedule: Q01DX005 (ip), vehicle: saline 102 % of control | endpoint: median survival time, dose: 200.0 mg/kg/injection, schedule: Q01DX005 (ip), vehicle: saline 100 % of control

CC(C)(COCc1ccccc1)COP(N)(=O)N(CCCl)CCCl (centres undefined)
inactive: endpoint: mean survival time, dose: 25.0 mg/kg/injection, schedule: Q01DX001 (ip), vehicle: other 102 % of control | endpoint: mean survival time, dose: 50.0 mg/kg/injection, schedule: Q01DX001 (ip), vehicle: other 93 % of control | endpoint: mean survival time, dose: 100.0 mg/kg/injection, schedule: Q01DX001 (ip), vehicle: other 87 % of control | endpoint: mean survival time, dose: 200.0 mg/kg/injection, schedule: Q01DX001 (ip), vehicle: other 96 % of control | endpoint: mean survival time, dose: 400.0 mg/kg/injection, schedule: Q01DX001 (ip), vehicle: other 98 % of control

N#C/C(=C/C=C/c1ccccc1)c1ccc([N+](=O)[O-])cc1
inactive: endpoint: mean survival time, dose: 100.0 mg/kg/injection, schedule: Q04DX002 (ip), vehicle: other 111 % of control | endpoint: mean survival time, dose: 200.0 mg/kg/injection, schedule: Q04DX002 (ip), vehicle: other 100 % of control | endpoint: mean survival time, dose: 400.0 mg/kg/injection, schedule: Q04DX002 (ip), vehicle: other 96 % of control

CC1=CC=CC2=NC(=O)CCN12
inactive: [8] 104 % of control | [1] 105 % of control | [9] 106 % of control | [2] 102 % of control | endpoint: mean survival time, dose: 400.0 mg/kg/injection, schedule: Q01DX009 (ip), vehicle: saline with Tween-80 103 % of control | [3] 103 % of control

O=C(O)C1C2C=CC3(O2)C(=O)N(Cc2ccccc2)C(=O)C13 (centres undefined)
inactive: [10] 95 % of control | [11] 103 % of control | [12] 98 % of control

Cc1c2ccccc2c(CN2CC(O)CC2C(=O)O)c2ccc3ccccc3c12 (centres undefined)
inactive: [1] 102 % of control | [2] 100 % of control | [3] 87 % of control

CC(/C=C/c1ccccc1)=Nc1ccccc1
inactive: [1] 106 % of control | [2] 103 % of control | [3] 106 % of control | endpoint: median survival time, dose: 12.5 mg/kg/injection, schedule: Q01DX009 (ip), vehicle: saline with Tween-80 108 % of control | endpoint: median survival time, dose: 25.0 mg/kg/injection, schedule: Q01DX009 (ip), vehicle: saline with Tween-80 98 % of control | endpoint: median survival time, dose: 50.0 mg/kg/injection, schedule: Q01DX009 (ip), vehicle: saline with Tween-80 111 % of control | endpoint: median survival time, dose: 100.0 mg/kg/injection, schedule: Q01DX009 (ip), vehicle: saline with Tween-80 107 % of control | endpoint: median survival time, dose: 200.0 mg/kg/injection, schedule: Q01DX009 (ip), vehicle: saline with Tween-80 104 % of control

CC1CCC(CC(N)=O)C1(C)C (centres undefined)
inactive: [4] 97 % of control | [5] 105 % of control | [6] 97 % of control

Cc1ccccc1S(=O)(=O)N/N=C/c1ccsc1
inactive: endpoint: median survival time, dose: 50.0 mg/kg/injection, schedule: Q04DX002 (ip), vehicle: saline with Tween-80 90 % of control | endpoint: median survival time, dose: 100.0 mg/kg/injection, schedule: Q04DX002 (ip), vehicle: saline with Tween-80 90 % of control | endpoint: median survival time, dose: 200.0 mg/kg/injection, schedule: Q04DX002 (ip), vehicle: saline with Tween-80 100 % of control | endpoint: median survival time, dose: 400.0 mg/kg/injection, schedule: Q04DX002 (ip), vehicle: saline with Tween-80 90 % of control

COc1cc(Cl)ccc1NC(=O)Oc1c(Cl)cccc1Cl
inactive: endpoint: mean survival time, dose: 50.0 mg/kg/injection, schedule: Q01DX009 (ip), vehicle: saline with Tween-80 104 % of control | [8] 100 % of control | [9] 100 % of control

CCCCCC/C(C)=C(\C)c1cc(OC)cc(OC)c1
inactive: [1] 96 % of control | [2] 100 % of control

O=[N+]([O-])c1ccc(NN=C2c3ccccc3Cc3ccccc32)c([N+](=O)[O-])c1
inactive: endpoint: mean survival time, dose: 25.0 mg/kg/injection, schedule: Q04DX002 (ip), vehicle: saline with Tween-80 98 % of control | endpoint: mean survival time, dose: 50.0 mg/kg/injection, schedule: Q04DX002 (ip), vehicle: saline with Tween-80 91 % of control | [10] 87 % of control

O=C(COc1ccc(Cl)c(Cl)c1)Nc1cccc(C(=O)CCl)c1
inactive: [1] 95 % of control | [2] 101 % of control | [3] 103 % of control

Cc1c(Cl)c(Cl)c(NS(=O)(=O)c2ccccc2)c(NS(=O)(=O)c2ccccc2)c1Cl
inactive: endpoint: mean survival time, dose: 100.0 mg/kg/injection, schedule: Q04DX003 (ip), vehicle: Klucel (hydroxypropylcellulose) (HPC) 97 % of control | endpoint: mean survival time, dose: 200.0 mg/kg/injection, schedule: Q04DX003 (ip), vehicle: Klucel (hydroxypropylcellulose) (HPC) 104 % of control | endpoint: mean survival time, dose: 400.0 mg/kg/injection, schedule: Q04DX003 (ip), vehicle: Klucel (hydroxypropylcellulose) (HPC) 95 % of control

O=C1C(c2ccccc2)=C(c2ccccc2)c2c(-c3ccccc3)ccc(-c3ccccc3)c21
inactive: [1] 89 % of control | [2] 100 % of control | [3] 94 % of control

Clc1ccc([PH+](c2ccc(Cl)cc2)c2ccc(Cl)cc2)cc1.Clc1ccc([PH+](c2ccc(Cl)cc2)c2ccc(Cl)cc2)cc1.[Cl][Hg][Cl]
inactive: [7] 96 % of control | endpoint: mean survival time, dose: 50.0 mg/kg/injection, schedule: Q01DX009 (ip), vehicle: Klucel (hydroxypropylcellulose) (HPC) 104 % of control

O=S(=O)(O)C(I)S(=O)(=O)O
inactive: endpoint: mean survival time, dose: 100.0 mg/kg/injection, schedule: Q01DX001 (ip), vehicle: saline 97 % of control | endpoint: mean survival time, dose: 200.0 mg/kg/injection, schedule: Q01DX001 (ip), vehicle: saline 102 % of control | endpoint: mean survival time, dose: 400.0 mg/kg/injection, schedule: Q01DX001 (ip), vehicle: saline 114 % of control

O=C1C=C(SCCO)C(=O)c2ccccc21
inactive: endpoint: mean survival time, dose: 0.63 mg/kg/injection, schedule: Q01DX009 (ip), vehicle: saline sonified 91 % of control | endpoint: mean survival time, dose: 1.25 mg/kg/injection, schedule: Q01DX009 (ip), vehicle: saline sonified 94 % of control | endpoint: mean survival time, dose: 1.25 mg/kg/injection, schedule: Q04DX003 (ip), vehicle: saline with Tween-80 92 % of control | endpoint: mean survival time, dose: 2.5 mg/kg/injection, schedule: Q01DX009 (ip), vehicle: saline sonified 105 % of control | endpoint: mean survival time, dose: 2.5 mg/kg/injection, schedule: Q04DX003 (ip), vehicle: saline with Tween-80 90 % of control

CN(C)C(=O)SCCSC(=O)N(C)C
inactive: [10] 106 % of control | [11] 92 % of control | [12] 95 % of control

OC1CCCCC1CCl (centres undefined)
inactive: endpoint: mean survival time, dose: 50.0 mg/kg/injection, schedule: Q01DX001 (ip), vehicle: carboxymethylcellulose (CMC) 103 % of control | endpoint: mean survival time, dose: 100.0 mg/kg/injection, schedule: Q01DX001 (ip), vehicle: carboxymethylcellulose (CMC) 97 % of control | endpoint: mean survival time, dose: 200.0 mg/kg/injection, schedule: Q01DX001 (ip), vehicle: carboxymethylcellulose (CMC) 97 % of control | endpoint: mean survival time, dose: 400.0 mg/kg/injection, schedule: Q01DX001 (ip), vehicle: carboxymethylcellulose (CMC) 103 % of control
